Measurements published in US20080138437A1, “Antitumor Agent” (priority 2004, published 2008).
Where a name gives a salt, the structure may show the parent alone. Read-outs that look alike come from different tables or passages of the source.

Columns and labels:
in vivo = details: male, C57BL/6, mouse
C57BL/6 male mouse = details: for deaths versus administered animals: one-time
[1] = system: 15 types of human cancer cells; assay: Cell growth inhibition test, MTT, average GI 50; format: cell-based; details: average of 15 human cancer cell types, 48 hours exposure
Description: Appropriate amounts of each of the human cancer cells suspended in 5% fetal bovine serum-supplemented medium were plated into a 96-well plate, and allowed to adhere to the wells in a 37° C. CO2 incubator overnight.
These cancer cells were exposed to each anticancer agent for 48 hours. Cell growth was assayed by MTT. Absorbance of the control well (C) and the test well (T) was measured at 550 nm.
The absorbance of the test well immediately after adding the drug (TO) was also measured. Using these measured values, GI 50 of each drug was calculated, and the drug concentration at that time was obtained. For comparison, a similar test was performed for each of the anticancer agents (Comparative Tests 4-1 to 4-7).

A549 lung cancer cells = assay: Antitumor test, transplanted tumor in nude mice; format: in vivo, human; details: control, drug without hydroxyapatite adsorption
Source text: (§1) (Experimental Test 5-1 to 5-5).
(§2) Female nude mice (7 weeks old, 16 to 22 g) with a BALB/c genetic background were used for the tests. Human cancer cells used for the tests were GCIY stomach cancer cells, HCT-15 colon cancer cells, A549 lung cancer cells, and OVCAR-3 ovarian cancer cells. Human cancer cells were subcutaneously transplanted into nude mice, tumor lumps were formed, and these carcinomas were used for the tests.
(§3) Aseptically collected tumors were sliced into tumors of 3×3×3 mm, and then subcutaneously transplanted into a new nude mouse. When the tumors reached a volume of 100 to 300 mm^3, the animals were arbitrarily divided into groups of six (Day 0). […] Intravascular administration was the administration route for all.
(§4) After administration, between Days 24 to 31, the length (L) and width (W) of the tumor lump of the animal were measured twice a week, and the tumor volume (TV) was calculated according to the following formula: TV=(L×W^2)/2. Antitumor effect was determined at Day 14. The relative tumor volume (RTV) was obtained by the following formula: RTV=TV14/TV0, using values of the tumor volume at Day 0 and Day 14 (referred to as TV0 and TV14). Antitumor effect was evaluated as the tumor regression rate at Day 14 (T/C%). Herein, T/C %=100×(average RTV of the treated group)/(RTV of the control group).
(§5) As a control, each drug was tested without hydroxyapatite adsorption (Comparative Tests 5-10 to 5-14).

[2] = system: GCIY stomach cancer cells; assay: Antitumor test, transplanted tumor in nude mice; format: in vivo, human; details: control, drug without hydroxyapatite adsorption
Source text: as §1, §2, §3, §4, §5

[3] = system: OVCAR-3 ovarian cancer cells; assay: Antitumor test, transplanted tumor in nude mice; format: in vivo, human; details: control, drug without hydroxyapatite adsorption
Source text: as §1, §2, §3, §4, §5

[4] = system: HCT-15 colon cancer cells; assay: Antitumor test, transplanted tumor in nude mice; format: in vivo, human; details: control, drug without hydroxyapatite adsorption
Source text: as §1, §2, §3, §4, §5

[5] = intravascular, one-time administration, 14 days observation
[6] = 10 mg/kg intravascular, 14 days observation
[7] = 400 mg/kg oral, antitumor agent alone, 14 days observation
[8] = 600 mg/kg oral, antitumor agent alone, 14 days observation
[9] = 800 mg/kg oral, antitumor agent alone, 14 days observation
[10] = 1000 mg/kg oral, antitumor agent alone, 14 days observation
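Wherever LD50 is given: mice given a single dose and followed for 14 days, with deaths tallied, LD50 derived from the doses given and the resulting death counts.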
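Wherever deaths versus administered animals is given: mice given a single dose and followed for 14 days, with deaths tallied, LD50 derived from the doses given and the resulting death counts.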

CS(=O)(=O)OCCCCOS(C)(=O)=O [Busulphan]
LD50 at 14 days (in vivo; po): 40 mg/kg

N.N.O=C([O-])C1(C(=O)[O-])CCC1.[Pt+2] [Carboplatin]
deaths versus administered animals (C57BL/6 male mouse; 70 mg/kg intravascular, 14 days observation): 0/6 | deaths versus administered animals (C57BL/6 male mouse; 80 mg/kg intravascular, 14 days observation): 1/7 | deaths versus administered animals (C57BL/6 male mouse; 90 mg/kg intravascular, 14 days observation): 3/6 | deaths versus administered animals (C57BL/6 male mouse; 100 mg/kg intravascular, 14 days observation): 5/8 | deaths versus administered animals (C57BL/6 male mouse; 110 mg/kg intravascular, 14 days observation): 7/8 | deaths versus administered animals (C57BL/6 male mouse; 120 mg/kg intravascular, 14 days observation): 7/7 | LD50 (C57BL/6 male mouse; [5]): 93.0 mg/kg | LD50 (C57BL/6 male mouse; oral, antitumor agent alone (comparison), one-time administration, 14 days observation): 350 mg/kg | GI50 [1]: 75.7 µM

COC(COC(N)=O)C1=C(N2CC2)C(=O)C(C)=C(N2CC2)C1=O (centres unmarked) [Carboquone]
LD50 (in vivo): 5.8 mg/kg

N.N.[Cl][Pt][Cl] [Cisplatin]
deaths versus administered animals (C57BL/6 male mouse; 5.0 mg/kg intravascular, 14 days observation): 1/8 | deaths versus administered animals (C57BL/6 male mouse; 7.5 mg/kg intravascular, 14 days observation): 2/7 | deaths versus administered animals (C57BL/6 male mouse; [6]): 5/8 | deaths versus administered animals (C57BL/6 male mouse; 12.5 mg/kg intravascular, 14 days observation): 6/8 | deaths versus administered animals (C57BL/6 male mouse; 15 mg/kg intravascular, 14 days observation): 5/6 | deaths versus administered animals (C57BL/6 male mouse; 17.5 mg/kg intravascular, 14 days observation): 6/6 | Regression rate of transplanted cancer (T/C %) at Day 14 (A549 lung cancer cells): 79% | Regression rate of transplanted cancer (T/C %) at Day 14 [2]: 67% | Regression rate of transplanted cancer (T/C %) at Day 14 [3]: 67% | Regression rate of transplanted cancer (T/C %) at Day 14 [4]: 53% | GI50 [1]: 7.21 µM

O=P1(N(CCCl)CCCl)NCCCO1 (centres unmarked) [Cyclophosphamide]
LD50 (in vivo): 140 mg/kg | Regression rate of transplanted cancer (T/C %) at Day 14 (A549 lung cancer cells): 86% | Regression rate of transplanted cancer (T/C %) at Day 14 [2]: 78% | Regression rate of transplanted cancer (T/C %) at Day 14 [3]: 71% | Regression rate of transplanted cancer (T/C %) at Day 14 [4]: 52%

CCCCCCCCCCCCCCCCCCOP(=O)([O-])OC[C@H]1O[C@@H](n2ccc(N)nc2=O)[C@@H](O)[C@@H]1O.[Na+] [Cytarabine ocfosfate]
deaths versus administered animals (C57BL/6 male mouse; 250 mg/kg oral, antitumor agent alone, 14 days observation): 0/5 | deaths versus administered animals (C57BL/6 male mouse; 300 mg/kg oral, antitumor agent alone, 14 days observation): 1/5 | deaths versus administered animals (C57BL/6 male mouse; [7]): 2/5 | deaths versus administered animals (C57BL/6 male mouse; 500 mg/kg oral, antitumor agent alone, 14 days observation): 2/5 | deaths versus administered animals (C57BL/6 male mouse; [8]): 3/5 | deaths versus administered animals (C57BL/6 male mouse; 700 mg/kg oral, antitumor agent alone, 14 days observation): 3/5 | deaths versus administered animals (C57BL/6 male mouse; [9]): 4/5 | deaths versus administered animals (C57BL/6 male mouse; [10]): 5/5 | LD50 (C57BL/6 male mouse; mouse, in vivo, po): 524 mg/kg

CN(C)/N=N/c1[nH]cnc1C(N)=O [Dacarbazine]
LD50 (in vivo): 452 mg/kg

C[C@H]1O[C@@H](n2cc(F)c(=O)[nH]c2=O)[C@H](O)[C@@H]1O [Doxifluridine]
LD50 (in vivo; po): 1200 mg/kg

C[C@]12CC[C@@H]3c4ccc(OC(=O)N(CCCl)CCCl)cc4CC[C@H]3[C@@H]1CC[C@@H]2OP(=O)(O)O [Estramustine sodium phosphate]
LD50 (in vivo; po): 380 mg/kg

COc1cc([C@@H]2c3cc4c(cc3[C@@H](O[C@@H]3O[C@@H]5CO[C@@H](C)O[C@H]5[C@H](O)[C@H]3O)[C@H]3COC(=O)[C@H]23)OCO4)cc(OC)c1O [Etoposide]
deaths versus administered animals (C57BL/6 male mouse; [6]): 0/6 | deaths versus administered animals (C57BL/6 male mouse; 20 mg/kg intravascular, 14 days observation): 1/6 | deaths versus administered animals (C57BL/6 male mouse; 30 mg/kg intravascular, 14 days observation): 2/6 | deaths versus administered animals (C57BL/6 male mouse; 40 mg/kg intravascular, 14 days observation): 5/7 | deaths versus administered animals (C57BL/6 male mouse; 50 mg/kg intravascular, 14 days observation): 5/6 | deaths versus administered animals (C57BL/6 male mouse; 60 mg/kg intravascular, 14 days observation): 6/6 | LD50 (in vivo): 32.7 mg/kg | LD50 (in vivo; po): 220 mg/kg | Regression rate of transplanted cancer (T/C %) at Day 14 (A549 lung cancer cells): 72% | Regression rate of transplanted cancer (T/C %) at Day 14 [2]: 93% | Regression rate of transplanted cancer (T/C %) at Day 14 [3]: 76% | Regression rate of transplanted cancer (T/C %) at Day 14 [4]: 67% | GI50 [1]: 5.11 µM

CC(C)C(=O)Nc1ccc([N+](=O)[O-])c(C(F)(F)F)c1 [Flutamide]
LD50 (in vivo; po): 772 mg/kg

CC(C)C[C@H](NC(=O)[C@@H](COC(C)(C)C)NC(=O)[C@H](Cc1ccc(O)cc1)NC(=O)[C@H](CO)NC(=O)[C@H](Cc1c[nH]c2ccccc12)NC(=O)[C@H](Cc1cnc[nH]1)NC(=O)[C@@H]1CCC(=O)N1)C(=O)N[C@@H](CCCNC(=N)N)C(=O)N1CCC[C@H]1C(=O)NNC(N)=O [Goserelin acetate]
LD50 (in vivo; sc): 36 mg/kg

NC(=O)NO [Hydroxycarbamide]
LD50 (in vivo; po): 2350 mg/kg

O=P1(NCCCl)OCCCN1CCCl (centres unmarked) [Ifosfamide]
LD50 (in vivo): 325 mg/kg | LD50 (in vivo; po): 996 mg/kg

N[C@@H](Cc1ccc(N(CCCl)CCCl)cc1)C(=O)O [Melphalan]
LD50 (in vivo): 21 mg/kg

Sc1ncnc2nc[nH]c12 [Mercaptopurine]
LD50 (in vivo; po): 1090 mg/kg

CN(Cc1cnc2nc(N)nc(N)c2n1)c1ccc(C(=O)N[C@@H](CCC(=O)O)C(=O)O)cc1 [Methotrexate]
LD50 (in vivo; ip): 74 mg/kg

CO[C@@]12[C@H](COC(N)=O)C3=C(C(=O)C(C)=C(N)C3=O)N1C[C@@H]1N[C@@H]12 [Mitomycin C]
GI50 [1]: 1.43 µM

CC(=O)O[C@H]1C(=O)[C@@]2(C)[C@H]([C@H](OC(=O)c3ccccc3)[C@]3(O)C[C@H](OC(=O)[C@H](O)[C@@H](NC(=O)c4ccccc4)c4ccccc4)C(C)=C1C3(C)C)[C@]1(OC(C)=O)CO[C@@H]1C[C@@H]2O [Paclitaxel]
LD50 (in vivo): 12 mg/kg

CC(C)COC(=O)OCN1C(=O)CN(CCN2CC(=O)N(COC(=O)OCC(C)C)C(=O)C2)CC1=O [Sobuzoxane]
deaths versus administered animals (C57BL/6 male mouse; 200 mg/kg oral, antitumor agent alone, 14 days observation): 0/5 | deaths versus administered animals (C57BL/6 male mouse; [7]): 1/5 | deaths versus administered animals (C57BL/6 male mouse; [8]): 1/6 | deaths versus administered animals (C57BL/6 male mouse; [9]): 2/5 | deaths versus administered animals (C57BL/6 male mouse; [10]): 3/5 | deaths versus administered animals (C57BL/6 male mouse; 1200 mg/kg oral, antitumor agent alone, 14 days observation): 4/5 | deaths versus administered animals (C57BL/6 male mouse; 1400 mg/kg oral, antitumor agent alone, 14 days observation): 6/6

O=c1[nH]c(=O)n(C2CCCO2)cc1F (centres unmarked) [Tegafur]
LD50 (in vivo; ip): 750 mg/kg

S=P(N1CC1)(N1CC1)N1CC1 [Thiotepa]
LD50 (in vivo): 16.1 mg/kg

CN(C)CCOc1ccc(/C(=C(/CCCl)c2ccccc2)c2ccccc2)cc1 [Toremifene citrate]
LD50 (in vivo; po): 360 mg/kg

CC1=C(/C=C/C(C)=C/C=C/C(C)=C/C(=O)O)C(C)(C)CCC1 [Tretinoin]
LD50 (in vivo; po): 549 mg/kg

CC[C@]1(O)C[C@@H]2CN(CCc3c([nH]c4ccccc34)[C@@](C(=O)OC)(c3cc4c(cc3OC)N(C)[C@H]3[C@@](O)(C(=O)OC)[C@H](OC(C)=O)[C@]5(CC)C=CCN6CC[C@]43[C@@H]65)C2)C1 [Vinblastine sulfate]
LD50 (in vivo): 5.6 mg/kg | LD50 (in vivo; po): 427 mg/kg

CCC1=C[C@@H]2CN(C1)Cc1c([nH]c3ccccc13)[C@@](C(=O)OC)(c1cc3c(cc1OC)N(C)[C@H]1[C@@](O)(C(=O)OC)[C@H](OC(C)=O)[C@]4(CC)C=CCN5CC[C@]31[C@@H]54)C2 [Vinorelbine tartrate]
LD50 (in vivo): 2.3 mg/kg

CCC1=C[C@@H]2CN(C1)Cc1c([nH]c3ccccc13)[C@@](C(=O)OC)(c1cc3c(cc1OC)N(C)[C@H]1[C@@](O)(C(=O)OC)[C@H](OC(C)=O)[C@]4(CC)C=CCN5CC[C@]31[C@@H]54)C2 [Vinorelbine]
LD50 (in vivo; ip): 29 mg/kg

Bleomycin hydrochloride
deaths versus administered animals (C57BL/6 male mouse; 200 mg/kg intravascular, 14 days observation): 0/5 | deaths versus administered animals (C57BL/6 male mouse; 250 mg/kg intravascular, 14 days observation): 1/6 | deaths versus administered animals (C57BL/6 male mouse; 300 mg/kg intravascular, 14 days observation): 3/7 | deaths versus administered animals (C57BL/6 male mouse; 350 mg/kg intravascular, 14 days observation): 4/6 | deaths versus administered animals (C57BL/6 male mouse; 400 mg/kg intravascular, 14 days observation): 4/5 | deaths versus administered animals (C57BL/6 male mouse; 500 mg/kg intravascular, 14 days observation): 5/6 | deaths versus administered animals (C57BL/6 male mouse; 600 mg/kg intravascular, 14 days observation): 6/6 | LD50 (C57BL/6 male mouse; [5]): 322.7 mg/kg

B1: Neocarzinostatin (protein, UniProt P0A3R9 35-147, looked up)
Neocarzinostatin: AAPTATVTPSSGLSDGTVVKVAGAGLQAGTAYDVGQCAWVDTGVLACNPADFSSVTADANGSASTSLTVRRSFEGFLFDGTRWGTVDCTTAACQVGLSDAAGNGPEGVAISFN
modifications: enediyne chromophore
LD50 (C57BL/6 male mouse; intraperitoneal, one-time administration, 14 days observation): 1050 mg/kg
